The text below walks through data of patent US20240067603A1, “CUBANYL BIGUANIDE COMPOUNDS” (REGENTS OF THE UNIVERSITY OF MINNESOTA, priority 2020, published 2024).

Read-outs that look alike come from different tables or passages of the source.

One data set has as its target CYP3A4 (Homo sapiens, UniProt P08684). Nature of the data set: CYP3A4 Supersome mediated EET biosynthesis. The format is biochemical. Details: purchased Corning; host or cells: insect cells (microsomes). The protocol:
FIG. 1. Effects of HCB on CYP3A4 Supersome™ mediated EET biosynthesis. A 50 ul reaction in a 1.5 ml microcentrifuge tube contains the following components: arachidonic acid (60 μM), NDAPH (2 mM), DMSO or drug, CYP3A4 Supersome™ (1 μM) in potassium phosphate buffer (pH=7.4). The reaction was initiated by the addition of Supersome™ to the reaction mixture. After incubation at 37° C. for 30 minutes, 50 ul of acetonitrile spiked with 13C-EET internal standards was added and vortexed vigorously to terminate the reaction. Microcentrifuge tubes were centrifuged at 16,000×rpm for 10 min to precipitate proteins and other insoluble debris and 80 ul supernatant was transferred into HPLC vials and analyzed by an LC-MS as described previously (1). Results are expressed as mean±S.D. (n=3).
FIG. 2. Effects of DCB and HCB on CYP3A4 Supersome™ mediated EET biosynthesis. A 0.5 ml reaction in a 10 ml glass test tube contains the following components: arachidonic acid ([…]), NDAPH (2 mM), DMSO or drug solution (0.5 μl), CYP3A4 Supersome™ (80 nM) and 450.5 ul potassium phosphate buffer (pH=7.4). The reaction was initiated by the addition of Supersome™ to the rest. After incubation at 37° C. for 30 minutes, 0.5 ml of dichloromethane was added and vortexed vigorously to terminate the reaction. Organic phase and aqueous phase were separated by centrifugation at 3,000×rpm for 10 minutes. Two hundred microliters of the organic phase was withdrawn and evaporated to dryness. The residues were reconstituted with 20 ul methanol containing ^13C-EET internal standards and analyzed by an LC-MS as described previously (1). Results are expressed as mean±S.D. (n=3, * indicates a statistically significant difference from the control).
Recombinant Microsomal CYP-mediated EET Biosynthesis. CYP Supersomes™ (Corning, NY) (1 μM, final concentration) were incubated at 37° C. for 30 min in the presence of AA (120 μM) in 50 μl potassium phosphate buffer, (50 mM, pH 7.4), containing 1 mM EDTA and 1 mM NADPH. Reactions were terminated by addition of 50 μL of acetonitrile spiked with ^13C-EET internal standards followed by vigorous vortexing. After centrifugation at 16,000×rpm for 10 minutes to precipitate proteins and other insoluble debris and 80 μL supernatant was transferred into HPLC vials and analyzed by with an LC-ESI/MRM/MS method.
LC-ESI/MRM/MS Method for EET Measurement. EETs were measured by an LC-ESI/MRM/MS analytical method on a ThermoFisher Vantage triple quadrupole mass spectrometer (ThermoFisher, San Jose, CA) coupled with an UltiMate 3000 HPLC (ThermoFisher, San Jose, CA), using argon as the collision gas. Negative ion monitoring was performed at the following diagnostic product ions: 319 m/z→155 m/z for 8,9-EET; 319 m/z→179 m/z for 11,12-EET; 319 m/z→219 m/z for 14,15-EET; 339 m/z→163 m/z for 8,9-[^13C-20]EET; 339 m/z→233 m/z for 11,12-[^13C-20]EET; and 339 m/z→259 m/z for 14,15-[^13C-20]EET. Base-line resolution of EET regioisomers was achieved on a Phenomenex Luna C18 (2) reverse phase capillary column (250×0.5 mm, 5-μm particles) using the following mobile phase combinations: isocratic 5% B for 5 min, gradient 5-70% B for 5 min, hold at 70% for 30 min and then 95% for 10 min; A: 0.01% acetic acid in water, B: 0.01% acetic acid in acetonitrile; 10 μl/min flow rate. A standard curve was obtained by linear regression of the peak area ratio of authentic EET regioisomers against internal standards. The amount of EETs in samples was calculated according to the standard curve.

The next data set relates to EO771. Put plainly: Oxygen consumption rate (OCR), EO771. The format is cell-based, mouse (C57BL/6). The protocol: (§1) Measurement of oxygen consumption rate (OCR). Cells were maintained in growth medium consisting of 10% FBS at 37° C. with 5% CO2 and seeded at 25,000 cells per well in a 96-well XF96 cell culture microplates (Agilent, Santa Clara, CA). An 96 well XF sensor cartridge was hydrated and equilibrated with 200 ul calibrant in each well at 37° C. without CO2 overnight. Growth media was replaced with 150 μL DMEM based assay media (a non-buffered medium including 2 mM L-glutamine but no sodium bicarbonate (buffering agent), glucose, or sodium pyruvate, Agilent, Santa Clara, CA) the next day and cells were incubated CO2 free for 1 hour before the measurement of OCR by a Seahorse XFe Extracellular Flux Analyzer (Agilent, Santa Clara, CA), which measures uptake and excretion of metabolic end products in real time. After baseline measurements, 20 μl assay medium containing control vehicle or drugs were injected into corresponding wells. OCRs were measured periodically and can be reported in pmoles/minute or normalized against baseline measurements before treatment.

The test system of the next data set is mm001. Nature of the data set: Oxygen consumption rate (OCR), mm001. The format is cell-based, mouse (C57BL/6). How it is done:
as §1

A further data set relates to MCF-7 cells. Put plainly: Oxygen consumption rate (OCR), Seahorse XFe, MCF-7. The format is cell-based, human. The protocol:
FIGS. 3A-3B. Effects of DCB (FIG. 3B) and HCB (FIG. 3A) on MCF-7 cells respiration. MCF-7 cells were seeded at 25,000 cells/well into a 96-well XF96 cell microplate. Growth media was replaced with 150 μL metabolism assay media the next day and cells were incubated CO2 free for 1 hour before the measurement of oxygen consumption rate (OCR) every seven minutes by a Seahorse XFe analyzer. Drugs were injected into the media after the fifth measurement (indicated by time point A and the dashed line). Results are reported as mean of percent of base OCR (OCR of the fifth measurement)±S.D. (n=12 for DMSO and 16 for treatment groups).
Measurement of oxygen consumption rate (OCR). Cells were maintained in growth medium consisting of 10% FBS at 37° C. with 5% CO2 and seeded at 25,000 cells per well in a 96-well XF96 cell culture microplates (Agilent, Santa Clara, CA). An 96 well XF sensor cartridge was hydrated and equilibrated with 200 ul calibrant in each well at 37° C. without CO2 overnight. […] OCRs were measured periodically and can be reported in pmoles/minute or normalized against baseline measurements before treatment.

Sequence of CYP3A4 (P08684 whole entry): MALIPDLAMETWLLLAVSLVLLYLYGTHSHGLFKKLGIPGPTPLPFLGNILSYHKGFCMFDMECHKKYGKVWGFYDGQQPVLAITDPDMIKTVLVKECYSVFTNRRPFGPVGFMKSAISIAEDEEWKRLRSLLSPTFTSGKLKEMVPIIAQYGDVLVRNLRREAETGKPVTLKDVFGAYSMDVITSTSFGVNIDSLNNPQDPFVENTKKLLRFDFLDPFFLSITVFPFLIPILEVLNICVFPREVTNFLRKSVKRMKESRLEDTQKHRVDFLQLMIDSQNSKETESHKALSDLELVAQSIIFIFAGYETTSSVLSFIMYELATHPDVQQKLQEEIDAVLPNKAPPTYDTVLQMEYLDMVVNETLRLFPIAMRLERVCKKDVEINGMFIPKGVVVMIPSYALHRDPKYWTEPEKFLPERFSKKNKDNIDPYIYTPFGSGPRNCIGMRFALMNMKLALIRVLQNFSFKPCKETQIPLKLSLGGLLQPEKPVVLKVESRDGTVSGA

In general, IC50 refers to the concentration at which inhibition is half-maximal. For orientation: Ki means a measure of affinity in units of concentration, obtained from inhibition or displacement. `CCCCCCNC(=N)NC(=N)NCC12C3C4C5C3C1C5C42` (stereo not drawn) [HCB, Hexyl Cubanomethyl Biguanide]: the IC50 came out at 28 µM at CYP3A4 ((±)8,9-EET, Example B text, read-out: IC50, CYP3A4 biosynthesis of (±)8,9-EET); 56 µM at CYP3A4 ((±)11,12-EET, Example B text, read-out: IC50, CYP3A4 biosynthesis of (±)11,12-EET); 3.8 µM on CYP3A4 ((±)14,15-EET, Example B text, read-out: IC50, CYP3A4-mediated biosynthesis of (±)14,15-EET); 64.8 ± 6.5 µM at CYP3A4 (FIG. 1, (±)8,9-EET, curve fitting, read-out: IC50 for (±)8,9-EET biosynthesis); 26.5 ± 1.9 µM on CYP3A4 (FIG. 1, (±)11,12-EET, curve fitting, read-out: IC50 for (±)11,12-EET biosynthesis); 4.7 ± 0.2 µM at CYP3A4 (FIG. 1, (±)14,15-EET, arachidonic acid 60 μM, CYP3A4 Supersome 1 μM, 30 min, curve fitting, read-out: IC50 for (±)14,15-EET biosynthesis). Moreover, the Ki on CYP3A4 ((±)-14,15-EET, read-out: Ki, inhibition of biosynthesis of (±)-14,15-EET) came out at 4.7 µM. Besides, the “fold more potent than HBB for inhibiting biosynthesis of (±)14,15-EET” value on CYP3A4 (HCB vs HBB, CYP3A4) is around 2.5 fold. The results for the “OCR Inhibition [HCB] (uM) v vs. control (P < 0.05)” value in the data set with EO771, in the data set on mm001 and in the data set with MCF-7 cells (MCF-7) were 20 µM, 10 µM and 10 µM, respectively. The “effect on oxidative phosphorylation (OCR)” value in the data set on MCF-7 cells (10 μM, MCF-7 cells, FIGS. 3A-3B) is reported as “inhibited oxidative phosphorylation”.
